In ChEMBL document CHEMBL1773019, “Antifibrotic constituents of Alnus firma on hepatic stellate cells” (Bioorg Med Chem Lett, 2011):
Calls of active or inactive are those of the source. The calls are words filed in the database; no cut-off is given here.

Experiments:
[1] = Antifibrotic activity against rat HSC-T6 cells assessed as inhibition of proliferation after 48 hrs by BrdU incorporation assay; format: functional, cell-based; details: HSC-T6, 48 h
HSC-T6 [2] = test: Decrease in collagen content in rat HSC-T6 cells at 10 to 100 uM after 48 hrs by sirius red-based colorimetric assay; format: functional, cell-based
HSC-T6 [3] = test: Induction of cell death in rat HSC-T6 cells assessed as decrease in cell viability at 100 uM by MTT assay; format: functional, cell-based; details: TDE = time-dependent effect
[4] = Induction of apoptosis in rat HSC-T6 cells assessed as increase in caspase-3/7 activity at 10 to 100 ug/ml after 24 to 48 hrs; format: functional
HSC-T6 [5] = test: Antiproliferative activity against rat HSC-T6 cells at 10 to 100 ug/ml after 24 to 48 hrs by BrdU incorporation assay; format: functional, cell-based
HSC-T6 [6] = test: Induction of cell death in rat HSC-T6 cells assessed as decrease in cell viability after 48 hrs by MTT assay; format: functional, cell-based
[7] = Cytotoxicity against rat HSC-T6 cells assessed as decrease in LDH release; format: cell-based
[8] = Inhibition of rat HSC-T6 cell proliferation at 100 ug/ml after 48 hrs by BrdU incorporation assay; format: functional; details: HSC-T6, 48 h

SMILES	IC50 [1] [µM]	Activity (HSC-T6 [2])	Activity (HSC-T6 [3])	Activity [4] [%]	Activity (HSC-T6 [5])	Activity (HSC-T6 [6])	Activity [7]	inhibition at 100 µg/mL [8] [%]
O=C(/C=C/CCc1ccc(O)c(O)c1)CCc1ccc(O)c(O)c1 [DEHYDROHIRSUTANONOL]	14	Dose-dependent effect	tde	150	Active	Dose-dependent effect	Non-toxic	–
O=C(O[C@@H]1Cc2c(O)cc(O)cc2O[C@@H]1c1cc(O)c(O)c(O)c1)c1cc(O)c(O)c(O)c1 [EPIGALOCATECHIN GALLATE]	9.9	–	–	–	–	–	–	–
C=C(C)[C@@H]1CC[C@]2(CO)CC[C@]3(C)[C@H](CC[C@@H]4[C@@]5(C)C[C@@H](O)[C@H](OC(=O)/C=C/c6ccc(O)c(O)c6)C(C)(C)[C@@H]5CC[C@]43C)[C@@H]12	23.9	Dose-dependent effect	tde	150	Active	Dose-dependent effect	Non-toxic	–
OC[C@@]1(O)CO[C@@H](OC[C@H]2O[C@@H](O[C@H](CCCCc3ccc(O)cc3)CCc3ccc(O)cc3)[C@H](O)[C@@H](O)[C@@H]2O)[C@@H]1O	39.1	–	–	–	–	–	–	22.7
